Key:
[1] = test system: rapeseed (Brassica napus L. var. napus) seeds; experiment: Phytotest 1: phytotoxicity, seed germination and root growth; format: in vivo; details: 50 µg/mL; versus water–ethanol 0.5% (v/v) control; <90% inhibition, 90–110% no effect, >110% stimulation
Text: (§1) In the experiments with plants, two aspects were taken under consideration: (1) phytotoxicity, which determined the toxicity of the hydrazide–hydrazones on seed germination and root growth, and (2) study on the behavior of seeds in the presence of the tested hydrazide–hydrazones and pathogens producing laccase (B. cinerea and S. sclerotiorum). The non-coated seeds of Linum usitatissimum, Helianthus annuus, and Brassica napus var. napus were provided by the Institute of Soil Science and Plant Cultivation, National Research Institute in Pulawy, Department of Weed Science and Tillage Systems, and Institute of Technology and Life Sciences–National Research Institute Falenty (Poland). Both phytotests were performed based on direct-contact microbiotests following the protocol recommended by the manufacturer (PhytotestkitTM, MicroBio Tests, Mariakerke, Belgium) with the authors’ modifications.
(§2) The main phytotest equipment (Tigret, Warsaw, Poland) and general methods are described as follows. Test plates (21 × 15.5 × 0.8 cm) provide optimal moisture and enable observation of seed germination and data reading at the end of the test. A single plate is made of polyvinylchloride and composed of both a transparent bottom and a covering part that are stuck together by a set of press buttons. […] Such prepared wet support was covered with a black filter paper that soaked the solution and was applied for further testing.
(§3) In the assay of phytotoxicity (1), the seeds of three dicota plants were used, namely ten seeds of flax or rapeseed and six seeds of sunflower. The seeds were transferred directly on the filter surface by placing them along the line at approximately 1 cm from the ridge at equal distances. Then, the seeds on the filter surface were covered with a covering part and placed in a holder.
(§4) All test plates were put vertically in a special incubator to allow free germination and growth of roots at 25 °C through 5 days in the dark. The test was performed in triplicate for each test plant. The results were expressed as the germination index values (GI, Equation (2)) concerning the plant growth controls in water–ethanol solution for (1). […] The GI was calculated from the formula and categorized as an inhibition for GI values < 90%, as stimulation > 110%, and between 90 and 110% as non-toxic/no effect as proposed in the literature. (2) GI,%=Gs×Ls/Gc×Lc×100% where Gs is seed germination (%), Ls is root elongation (mm) for the test plate, and Gc and Lc are corresponding values for the control plates. Gc was calculated as the proportion of germinated seeds in the test in relation to the number of germinated seeds in the control. The control was the representative number of seeds that germinated on a medium with 0.5% (v/v) of ethanol.

MCF-10A cells = experiment: Antiproliferative assay in vitro (SRB); format: cell-based, human; details: Homo sapiens, MCF-10A; 72 h exposure, SRB method; read-out: Average IC50 ± SD, MCF-10A line
Procedure: (§5) Antiproliferative tests were performed on a normal human breast cell line, MCF-10A, and a mouse embryonic fibroblast: Balb/3T3. Both cell lines were obtained from the American Type Culture Collection (Rockville, MD, USA). The cell lines were maintained in the Institute of Immunology and Experimental Therapy, Wroclaw, Poland. MCF-10A cells were cultured in the F-12 nutrient mixture (Gibco, Scotland, UK), supplemented with 5% horse serum (Gibco, Scotland, UK), […] (Vibrio cholerae Pacini), 10 μg/mL of hydrocortisone and 20 ng/mL of human epidermal growth factor (all from Sigma-Aldrich, Chemie GmbH, Steinheim, Germany). Balb/3T3 cells were cultured in Dulbecco medium (Gibco, Darmstadt, Germany) supplemented with 10% fetal bovine serum (Thermo Fisher Scientific, Waltham, MA, USA) and 2 mM l-glutamine (Sigma-Aldrich, St. Louis, MO, USA). All culture media contained antibiotics: 100 U/mL penicillin (Sigma-Aldrich, St. Louis, MO, USA) and 100 µg/mL streptomycin (Polfa-Tarchomin, Warsaw, Poland). Both cell lines were cultured during the entire experiment in a humid atmosphere at 37 °C and 5% CO2. Amistar 250 SC (fungicide) with active compound azoxystrobin was provided by the Institute of Soil Science and Plant Cultivation, National Research Institute in Pulawy, Department of Weed Science and Tillage Systems in Wroclaw, Poland […].
(§6) Twenty-four hours prior to the applications of the tested compounds, MCF-10A and Balb/3T3 cells were plated in 96-well plates at a density of 10^4 cells per well and cultured at 37 °C in a humid atmosphere saturated with 5% CO2 for 24 h. Stock solutions of the compounds were prepared ex tempore for each test by dissolving in DMSO. The cells were also exposed to the reference drugs: cis-platin (Accord, London, UK) (10–0.01 µg/mL) and DMSO (Sigma-Aldrich) (at the concentrations corresponding to those in the tested agent dilutions). The solutions were then diluted in culture medium RPMI 1640 + Opti-MEM (1:1) (both from Gibco, Scotland, UK), supplemented with 2 mM l-glutamine, 5% fetal bovine serum (all from Sigma-Aldrich Chemie GmbH, Steinheim, Germany). An assay was performed after 72 h of exposure to the tested compounds 13, 17, 18, 19, 25, 27, 30, 4-hba, 4-hbah, and 3,4,5-hba (0.5, 5.0, 50, and to 500 µM) and azoxystrobin fungicide (0.05, 0.5, 5.0 and 50 µM). The antiproliferative effect in vitro was determined by the SRB method (sulforhodamine B colorimetric assay). The optical densities of the samples were measured on the Synergy H4 photometer (BioTek Instruments, Winooski, VT, USA) at 540 nm. The results were calculated as 50% inhibitory concentration (IC50), namely the dose of the tested compound inhibiting proliferation of the tested cells by 50% as compared to the untreated control cells, in the Prolab-3 system based on Cheburator 0.4 software using the two-point method. Each test was repeated 3–5 times.
(§7) Cytotoxicity was performed on two normal cell lines: MCF -10A and Balb/3T3, using as controls cis-platin in the concentrations of 0.03 32, 0.3 32, 3.32 and 33.2 µM and azoxystrobin fungicide in the […]
(§8) were tested in the concentrations of 0.5, 5.0, 50, and 500 µM. The relation of compound concentration […]
(§9) Further, a comparison of the influence of each tested concentration in the group of tested compounds on cell lines was illustrated in Figure S130 a (MCF-10A) and b (Balb/T3T).
(§10) Table S4. Cytotoxicity results for compounds 13, 17, 18, 19, 25, 27, and 30 investigated on normal mammalian lines: MCF -10A and B alb/3T3 using Azoxystrobin (fungicide) and cis-platin as reference compounds.
(§11) Cytotoxicity profile presented as proliferation inhibition, % (y -axis) in the function of compound concentration, […]
(§12) Structure MCF-10A Balb/3T3
(§13) Proliferation inhibition [%] […]

Balb/3T3 cells = experiment: Antiproliferative assay in vitro (SRB); format: cell-based, mouse; details: Mus musculus, BALB/3T3; 72 h exposure, SRB method; read-out: Average IC50 ± SD, Balb/3T3 line
Procedure: as §5, §6, §7, §8, §9, §10, §11, §12, §13

[2] = test system: flax (Linum usitatissimum L.) seeds; experiment: Phytotest 1: phytotoxicity, seed germination and root growth; format: in vivo; details: 50 µg/mL; versus water–ethanol 0.5% (v/v) control; <90% inhibition, 90–110% no effect, >110% stimulation
Text: as §1, §2, §3, §4

| SMILES | Germination index (GI), rapeseed, test 1 [1] | IC50 (MCF-10A cells) [µM] | IC50 (Balb/3T3 cells) [µM] | melting point | Germination index (GI), flax, test 1 [2] |
| --- | --- | --- | --- | --- | --- |
| COc1cc(/C=N/NC(=O)c2ccc(O)cc2)ccc1O [compound 17] | 81% | 275 ± 41.5 | 217 ± 61.2 | – | – |
| CC(C)(C)c1cc(/C=N/NC(=O)c2ccc(O)cc2)c(O)c(C(C)(C)C)c1 [compound 27] | 83% | 7.73 ± 1.08 | 11.7 ± 0.69 | – | – |
| O=C(N/N=C/c1cc(O)ccc1O)c1ccc(O)cc1 [compound 13] | – | 213 ± 34.1 | 132 ± 9.22 | 304 °C (dec.) | – |
| CC(C)(C)c1cccc(/C=N/NC(=O)c2ccc(O)cc2)c1O [compound 18] | 67% | 6.41 ± 2.05 | 11.4 ± 2.54 | – | stimulating |
| O=C(N/N=C/c1cccc(-c2ccccc2)c1O)c1ccc(O)cc1 [compound 19] | stimulating | 3.44 ± 0.83 | 3.97 ± 0.15 | – | – |
| Cc1cc(/C=N/NC(=O)c2ccc(O)cc2)c(O)c(CO)c1 [compound 25] | stimulated | 27.5 ± 1.83 | 27.2 ± 4.3 | – | stimulated |
| Cc1cc(/C=N/NC(=O)c2ccc(O)cc2)c(O)c(C(C)(C)C)c1 [compound 30] | – | 8.85 ± 5.47 | 23.1 ± 3.87 | – | – |
